In US12036226B2, “Methods of treating subjects having diabetes with chronic kidney disease” (Poxel SA, priority 2018, dated 2024):

Key:
[1] = system: Japanese patients with type 2 diabetes (T2DM); assay: 24-week Phase III placebo-controlled monotherapy study in Japanese patients with type 2 diabetes; assay type: in vivo, human; conditions: for HbA1c LSM Difference vs. Placebo, Week 24 / Change in HbA1c from baseline, Week 24 LS Mean (SE) / HbA1c LSM Difference vs. Placebo (SE), Week 24: 1000 mg BID
Description: A 24-Week Phase III, Randomized, Double-Blind, Placebo-Controlled, Monotherapy Study to Assess the Efficacy, Safety and Tolerability of Imeglimin Administered Orally in Japanese Patients with Type 2 Diabetes (T2DM)
A total of 213 subjects were randomized in a 1:1 ratio to receive either imeglimin (1000 mg BID) or placebo BID for 24 weeks, with 194 subjects completing the study without Investigational Medicinal Product (IMP) discontinuation. The primary objective of this study was to determine the change in HbA1c from baseline after 24 weeks of imeglimin treatment compared to placebo. Secondary endpoints of the trial included fasting plasma glucose along with other standard glycemic and non-glycemic parameters. Subjects were to have an eGFR of ≥50 mL/min/1.73 m^2 at Screening and ≥45 mL/min/1.73 m^2 at Pre-randomization.

[2] = system: subjects with T2DM and CKD stage 3B or 4; assay: Phase 1b 28-day safety, tolerability and PK study in subjects with T2DM and CKD stage 3B or 4; assay type: in vivo
Description: An Open Label, Parallel Arm Study to Assess the Safety, Tolerability, and Pharmacokinetics of Imeglimin in Subjects with Type 2 Diabetes Mellitus (T2DM) and Moderate to Severe Chronic Kidney Disease (CKD)
This Phase 1b study is to assess the safety, tolerability and pharmacokinetics (PK) of imeglimin in subjects with T2DM and CKD stage 3B or 4.
Subjects will be randomly allocated to receive one of three treatments or placebo.
Doses which are below the minimally acceptable doses are acceptable if stable for 12 weeks prior to Screening as per prescribing information. […] Primary Outcome Measures […]
Safety can be evaluated by assessment of clinical laboratory tests, physical examinations, vital signs measurements, and ECG readings at various time points during the study, and by the documentation of AEs.
The incidence of treatment-emergent adverse events (TEAE) will be summarized by treatment.
Plasma lactate will be summarized descriptively by absolute value at each visit by treatment group, together with the corresponding changes from baseline.
Pharmacokinetics (PK) data can be descriptively summarized by treatment group. PK parameters will be determined using noncompartmental methods. […] Steady-state can be evaluated using the trough concentration data.

C[C@H]1N=C(N(C)C)N=C(N)N1 [imeglimin, (6R)—N^2, N^2,6-trimethyl-3,6-dihydro-1,3,5-triazine-2,4-diamine]
HbA1c LSM Difference vs. Placebo, Week 24 ([1]; CKD Stage 2 (eGFR = 60-90 mL/min/1.73 m^2)): −0.96%
Change in HbA1c from baseline, Week 24 LS Mean (SE) ([1]; CKD Stage 2 (eGFR = 60-90 mL/min/1.73 m^2), N 66): −0.82 (0.08) %
HbA1c LSM Difference vs. Placebo, Week 24 ([1]; CKD Stage 2 (eGFR = 60-90 mL/min/1.73 m^2), listed as Imeglimin): −0.96 (0.11) %
HbA1c LSM Difference vs. Placebo, Week 24 ([1]; CKD Stage 3a (eGFR < 60 mL/min/1.73 m^2)): −0.70%
Change in HbA1c from baseline, Week 24 LS Mean (SE) ([1]; CKD Stage 3a (eGFR < 60 mL/min/1.73 m^2), N 21): −0.66 (0.13) %
HbA1c LSM Difference vs. Placebo, Week 24 ([1]; CKD Stage 3a (eGFR < 60 mL/min/1.73 m^2), listed as Imeglimin): −0.70 (0.19) %
HbA1c LSM Difference vs. Placebo (SE), Week 24 ([1]; Normal eGFR (eGFR > 90 mL/min/1.73 m^2)): −0.59%
Change in HbA1c from baseline, Week 24 LS Mean (SE) ([1]; Normal eGFR (eGFR > 90 mL/min/1.73 m^2), N 11): −0.33 (0.20) %
HbA1c LSM Difference vs. Placebo (SE), Week 24 ([1]; Normal eGFR (eGFR > 90 mL/min/1.73 m^2), listed as Imeglimin): −0.59 (0.32) %
A1C lowering compared to placebo ([1]; pre-specified analysis, stage 2 and 3a CKD (eGFR <90 mL/min/1.73 m^2, n=178)): improvement in A1C lowering as compared to placebo
Subjects with any TEAE ([2]; 500 mg BID, CKD3b (n = 8)): 2 (25%) n, %
Subjects with any TEAE by maximum severity: Grade 1 - Mild ([2]; 500 mg BID, CKD3b (n = 8)): 1 (13%) n, %
Subjects with any TEAE by maximum severity: Grade 2 - Moderate ([2]; 500 mg BID, CKD3b (n = 8)): 1 (13%) n, %
Subjects with any TEAE by maximum severity: Grade 3 - Severe ([2]; 500 mg BID, CKD3b (n = 8)): 0 n, %
Subjects with any TEAE by maximum severity: Grade 4 - Life-threatening ([2]; 500 mg BID, CKD3b (n = 8)): 0 n, %
Subjects with any TEAE by maximum severity: Grade 5 - Death ([2]; 500 mg BID, CKD3b (n = 8)): 0 n, %
Subjects with any study drug related TEAE ([2]; 500 mg BID, CKD3b (n = 8)): 0 n, %
Subjects with any study drug related TEAE: Grade 1 - Mild ([2]; 500 mg BID, CKD3b (n = 8)): 0 n, %
Subjects with any study drug related TEAE: Grade 2 - Moderate ([2]; 500 mg BID, CKD3b (n = 8)): 0 n, %
Subjects with any study drug related TEAE: Grade 3 - Severe ([2]; 500 mg BID, CKD3b (n = 8)): 0 n, %
Subjects with any study drug related TEAE: Grade 4 - Life-threatening ([2]; 500 mg BID, CKD3b (n = 8)): 0 n, %
Subjects with any study drug related TEAE: Grade 5 - Death ([2]; 500 mg BID, CKD3b (n = 8)): 0 n, %
TEAE: Gastrointestinal disorders ([2]; 500 mg BID, CKD3b (n = 8)): 1 (13%) n, %
Subjects with any TEAE ([2]; 500 mg BID, CKD4 (n = 5)): 1 (20%) n, %
Subjects with any TEAE by maximum severity: Grade 1 - Mild ([2]; 500 mg BID, CKD4 (n = 5)): 0 n, %
Subjects with any TEAE by maximum severity: Grade 2 - Moderate ([2]; 500 mg BID, CKD4 (n = 5)): 1 (20%) n, %
Subjects with any TEAE by maximum severity: Grade 3 - Severe ([2]; 500 mg BID, CKD4 (n = 5)): 0 n, %
Subjects with any TEAE by maximum severity: Grade 4 - Life-threatening ([2]; 500 mg BID, CKD4 (n = 5)): 0 n, %
Subjects with any TEAE by maximum severity: Grade 5 - Death ([2]; 500 mg BID, CKD4 (n = 5)): 0 n, %
Subjects with any study drug related TEAE ([2]; 500 mg BID, CKD4 (n = 5)): 0 n, %
Subjects with any study drug related TEAE: Grade 1 - Mild ([2]; 500 mg BID, CKD4 (n = 5)): 0 n, %
Subjects with any study drug related TEAE: Grade 2 - Moderate ([2]; 500 mg BID, CKD4 (n = 5)): 0 n, %
Subjects with any study drug related TEAE: Grade 3 - Severe ([2]; 500 mg BID, CKD4 (n = 5)): 0 n, %
Subjects with any study drug related TEAE: Grade 4 - Life-threatening ([2]; 500 mg BID, CKD4 (n = 5)): 0 n, %
Subjects with any study drug related TEAE: Grade 5 - Death ([2]; 500 mg BID, CKD4 (n = 5)): 0 n, %
TEAE: Gastrointestinal disorders ([2]; 500 mg BID, CKD4 (n = 5)): 0 n, %
Subjects with any TEAE ([2]; 1000 mg BID, CKD3b (n = 6)): 4 (67%) n, %
Subjects with any TEAE by maximum severity: Grade 1 - Mild ([2]; 1000 mg BID, CKD3b (n = 6)): 2 (33%) n, %
Subjects with any TEAE by maximum severity: Grade 2 - Moderate ([2]; 1000 mg BID, CKD3b (n = 6)): 2 (33%) n, %
Subjects with any TEAE by maximum severity: Grade 3 - Severe ([2]; 1000 mg BID, CKD3b (n = 6)): 0 n, %
Subjects with any TEAE by maximum severity: Grade 4 - Life-threatening ([2]; 1000 mg BID, CKD3b (n = 6)): 0 n, %
Subjects with any TEAE by maximum severity: Grade 5 - Death ([2]; 1000 mg BID, CKD3b (n = 6)): 0 n, %
Subjects with any study drug related TEAE ([2]; 1000 mg BID, CKD3b (n = 6)): 2 (33%) n, %
Subjects with any study drug related TEAE: Grade 1 - Mild ([2]; 1000 mg BID, CKD3b (n = 6)): 1 (17%) n, %
Subjects with any study drug related TEAE: Grade 2 - Moderate ([2]; 1000 mg BID, CKD3b (n = 6)): 1 (17%) n, %
Subjects with any study drug related TEAE: Grade 3 - Severe ([2]; 1000 mg BID, CKD3b (n = 6)): 0 n, %
Subjects with any study drug related TEAE: Grade 4 - Life-threatening ([2]; 1000 mg BID, CKD3b (n = 6)): 0 n, %
Subjects with any study drug related TEAE: Grade 5 - Death ([2]; 1000 mg BID, CKD3b (n = 6)): 0 n, %
TEAE: Gastrointestinal disorders ([2]; 1000 mg BID, CKD3b (n = 6)): 1 (17%) n, %
Subjects with any TEAE ([2]; 1000 mg BID, CKD4 (n = 7)): 4 (57%) n, %
Subjects with any TEAE by maximum severity: Grade 1 - Mild ([2]; 1000 mg BID, CKD4 (n = 7)): 2 (29%) n, %
Subjects with any TEAE by maximum severity: Grade 2 - Moderate ([2]; 1000 mg BID, CKD4 (n = 7)): 2 (29%) n, %
Subjects with any TEAE by maximum severity: Grade 3 - Severe ([2]; 1000 mg BID, CKD4 (n = 7)): 0 n, %
Subjects with any TEAE by maximum severity: Grade 4 - Life-threatening ([2]; 1000 mg BID, CKD4 (n = 7)): 0 n, %
Subjects with any TEAE by maximum severity: Grade 5 - Death ([2]; 1000 mg BID, CKD4 (n = 7)): 0 n, %
Subjects with any study drug related TEAE ([2]; 1000 mg BID, CKD4 (n = 7)): 1 (14%) n, %
Subjects with any study drug related TEAE: Grade 1 - Mild ([2]; 1000 mg BID, CKD4 (n = 7)): 1 (14%) n, %
Subjects with any study drug related TEAE: Grade 2 - Moderate ([2]; 1000 mg BID, CKD4 (n = 7)): 0 n, %
Subjects with any study drug related TEAE: Grade 3 - Severe ([2]; 1000 mg BID, CKD4 (n = 7)): 0 n, %
Subjects with any study drug related TEAE: Grade 4 - Life-threatening ([2]; 1000 mg BID, CKD4 (n = 7)): 0 n, %
